Biological target: BAX (Homo sapiens, UniProt Q07812)
Format: biochemical

Sequence of BAX (Q07812 whole entry): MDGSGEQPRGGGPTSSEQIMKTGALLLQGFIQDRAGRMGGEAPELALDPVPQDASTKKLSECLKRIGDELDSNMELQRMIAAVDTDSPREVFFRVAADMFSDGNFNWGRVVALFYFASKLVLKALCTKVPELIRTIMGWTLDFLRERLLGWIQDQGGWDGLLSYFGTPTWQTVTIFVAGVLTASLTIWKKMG

OC(CN1CCNCC1)Cn1c2ccccc2c2ccccc21 (stereo not shown) [BAI3]
fold lower activity compared to BAI1: ~ 7 fold

— paper PMC6430685 (Nature chemical biology, 2019)
